Columns and labels:
Assay in all cases: apparent dissociation constant (pKDapp, Kinobeads competition, Cheng-Prusoff corrected) (-log10 M); higher = tighter binding
ULK3 = ULK3 (UniProt Q6PHR2); settings: affinity matrix / lysate: Kinobeads, mixed HEK293/K-562/placenta lysate
MAP4K2 = MAP4K2 (UniProt Q12851); settings: affinity matrix / lysate: Kinobeads, mixed HEK293/K-562/placenta lysate
BRAF = BRAF (UniProt P15056); settings: affinity matrix / lysate: Kinobeads, mixed HEK293/K-562/placenta lysate
NLK = NLK (UniProt Q9UBE8); settings: affinity matrix / lysate: Kinobeads, mixed HEK293/K-562/placenta lysate
DAPK3 = DAPK3 (UniProt O43293); settings: affinity matrix / lysate: Kinobeads, mixed HEK293/K-562/placenta lysate
MAPKAPK5 = MAPKAPK5 (UniProt Q8IW41); settings: affinity matrix / lysate: Kinobeads, mixed HEK293/K-562/placenta lysate
Sequence of MAPKAPK5 (Q8IW41 whole entry): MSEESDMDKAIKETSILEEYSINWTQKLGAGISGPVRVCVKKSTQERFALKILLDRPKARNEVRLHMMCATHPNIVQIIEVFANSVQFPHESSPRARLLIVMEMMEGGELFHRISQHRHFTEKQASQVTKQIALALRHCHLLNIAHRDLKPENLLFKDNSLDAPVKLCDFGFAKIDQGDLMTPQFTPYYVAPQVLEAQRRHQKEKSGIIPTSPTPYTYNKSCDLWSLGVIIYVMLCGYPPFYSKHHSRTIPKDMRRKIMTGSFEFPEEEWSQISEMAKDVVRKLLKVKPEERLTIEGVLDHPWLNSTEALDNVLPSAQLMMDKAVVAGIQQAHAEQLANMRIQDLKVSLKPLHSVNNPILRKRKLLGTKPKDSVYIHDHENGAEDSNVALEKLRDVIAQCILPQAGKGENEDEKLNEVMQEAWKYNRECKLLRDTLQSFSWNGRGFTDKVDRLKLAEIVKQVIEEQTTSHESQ

CSNK1A1 = CSNK1A1 (UniProt P48729); settings: affinity matrix / lysate: Kinobeads, mixed HEK293/K-562/placenta lysate
Sequence of CSNK1A1 (P48729 whole entry, looked up): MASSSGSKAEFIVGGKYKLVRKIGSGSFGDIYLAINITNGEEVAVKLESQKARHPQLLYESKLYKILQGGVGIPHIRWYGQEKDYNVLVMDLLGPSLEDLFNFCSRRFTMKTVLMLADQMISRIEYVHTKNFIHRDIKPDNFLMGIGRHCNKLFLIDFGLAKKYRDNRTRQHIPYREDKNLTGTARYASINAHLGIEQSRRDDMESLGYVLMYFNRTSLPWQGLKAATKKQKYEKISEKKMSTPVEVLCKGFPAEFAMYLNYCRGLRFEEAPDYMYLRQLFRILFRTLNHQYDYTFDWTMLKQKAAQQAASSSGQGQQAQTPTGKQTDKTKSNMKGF

EIF2AK1 = EIF2AK1 (UniProt Q9BQI3); settings: affinity matrix / lysate: Kinobeads, mixed HEK293/K-562/placenta lysate
Sequence of EIF2AK1 (Q9BQI3 whole entry): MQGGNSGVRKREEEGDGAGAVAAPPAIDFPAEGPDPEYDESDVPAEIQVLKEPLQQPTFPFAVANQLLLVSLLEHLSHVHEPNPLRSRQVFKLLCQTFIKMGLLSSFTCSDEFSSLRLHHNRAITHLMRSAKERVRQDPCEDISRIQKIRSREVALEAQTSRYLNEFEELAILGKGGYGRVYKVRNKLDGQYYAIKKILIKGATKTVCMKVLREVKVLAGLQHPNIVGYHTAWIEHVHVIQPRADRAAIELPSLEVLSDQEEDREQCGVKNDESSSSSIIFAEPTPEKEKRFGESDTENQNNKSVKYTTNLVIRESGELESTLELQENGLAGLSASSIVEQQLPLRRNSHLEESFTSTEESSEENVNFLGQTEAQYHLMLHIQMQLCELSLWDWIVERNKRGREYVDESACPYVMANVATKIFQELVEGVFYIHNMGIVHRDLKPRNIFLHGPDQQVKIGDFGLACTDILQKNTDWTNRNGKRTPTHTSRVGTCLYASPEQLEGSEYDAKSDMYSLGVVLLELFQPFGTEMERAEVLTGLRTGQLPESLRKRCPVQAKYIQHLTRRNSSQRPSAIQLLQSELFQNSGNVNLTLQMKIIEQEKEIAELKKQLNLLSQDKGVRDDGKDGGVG

CDK10 = CDK10 (UniProt Q15131); settings: affinity matrix / lysate: Kinobeads, mixed HEK293/K-562/placenta lysate
Sequence of CDK10 (Q15131 whole entry): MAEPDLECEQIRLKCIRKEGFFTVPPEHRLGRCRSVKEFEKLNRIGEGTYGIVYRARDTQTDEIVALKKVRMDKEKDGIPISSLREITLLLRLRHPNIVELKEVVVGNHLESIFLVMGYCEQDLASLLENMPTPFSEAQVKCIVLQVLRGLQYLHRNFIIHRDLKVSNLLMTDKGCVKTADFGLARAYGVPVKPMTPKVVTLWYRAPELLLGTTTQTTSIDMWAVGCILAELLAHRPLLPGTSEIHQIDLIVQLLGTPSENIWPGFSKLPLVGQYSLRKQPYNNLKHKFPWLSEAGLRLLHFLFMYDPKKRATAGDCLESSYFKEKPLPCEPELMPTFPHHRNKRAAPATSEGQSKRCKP

ULK1 = ULK1 (UniProt O75385); settings: affinity matrix / lysate: Kinobeads, mixed HEK293/K-562/placenta lysate
FRK = FRK (UniProt P42685); settings: affinity matrix / lysate: Kinobeads, mixed HEK293/K-562/placenta lysate
RPS6KA5 = RPS6KA5 (UniProt O75582); settings: affinity matrix / lysate: Kinobeads, mixed HEK293/K-562/placenta lysate
Sequence of RPS6KA5 (O75582 whole entry, looked up): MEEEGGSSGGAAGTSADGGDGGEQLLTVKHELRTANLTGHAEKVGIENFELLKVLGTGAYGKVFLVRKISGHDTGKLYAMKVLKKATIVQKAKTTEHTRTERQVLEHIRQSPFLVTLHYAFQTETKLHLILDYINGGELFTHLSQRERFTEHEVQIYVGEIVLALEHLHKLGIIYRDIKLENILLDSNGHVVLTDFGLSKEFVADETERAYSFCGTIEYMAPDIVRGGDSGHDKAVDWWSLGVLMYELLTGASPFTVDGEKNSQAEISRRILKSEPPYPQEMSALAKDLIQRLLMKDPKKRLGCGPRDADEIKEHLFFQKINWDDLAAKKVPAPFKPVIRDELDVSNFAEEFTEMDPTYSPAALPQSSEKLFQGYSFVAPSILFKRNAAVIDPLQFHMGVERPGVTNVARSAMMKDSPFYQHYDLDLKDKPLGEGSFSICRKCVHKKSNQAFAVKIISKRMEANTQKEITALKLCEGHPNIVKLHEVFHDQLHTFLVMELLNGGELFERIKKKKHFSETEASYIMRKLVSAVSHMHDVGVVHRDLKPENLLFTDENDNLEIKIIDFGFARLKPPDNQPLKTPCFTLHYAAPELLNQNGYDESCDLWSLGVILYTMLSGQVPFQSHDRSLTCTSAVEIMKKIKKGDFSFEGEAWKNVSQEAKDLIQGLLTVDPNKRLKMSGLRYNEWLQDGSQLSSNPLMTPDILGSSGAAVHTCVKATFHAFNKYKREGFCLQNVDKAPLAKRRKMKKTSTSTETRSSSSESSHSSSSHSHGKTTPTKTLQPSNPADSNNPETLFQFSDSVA

KIAA0999 = KIAA0999 (UniProt Q9Y2K2); settings: affinity matrix / lysate: Kinobeads, mixed HEK293/K-562/placenta lysate
MAP3K5 = MAP3K5 (UniProt Q99683); settings: affinity matrix / lysate: Kinobeads, mixed HEK293/K-562/placenta lysate
CHEK1 = CHEK1 (UniProt O14757); settings: affinity matrix / lysate: Kinobeads, mixed HEK293/K-562/placenta lysate
EIF2AK4 = EIF2AK4 (UniProt Q9P2K8); settings: affinity matrix / lysate: Kinobeads, mixed HEK293/K-562/placenta lysate
Sequence of EIF2AK4 (Q9P2K8 whole entry): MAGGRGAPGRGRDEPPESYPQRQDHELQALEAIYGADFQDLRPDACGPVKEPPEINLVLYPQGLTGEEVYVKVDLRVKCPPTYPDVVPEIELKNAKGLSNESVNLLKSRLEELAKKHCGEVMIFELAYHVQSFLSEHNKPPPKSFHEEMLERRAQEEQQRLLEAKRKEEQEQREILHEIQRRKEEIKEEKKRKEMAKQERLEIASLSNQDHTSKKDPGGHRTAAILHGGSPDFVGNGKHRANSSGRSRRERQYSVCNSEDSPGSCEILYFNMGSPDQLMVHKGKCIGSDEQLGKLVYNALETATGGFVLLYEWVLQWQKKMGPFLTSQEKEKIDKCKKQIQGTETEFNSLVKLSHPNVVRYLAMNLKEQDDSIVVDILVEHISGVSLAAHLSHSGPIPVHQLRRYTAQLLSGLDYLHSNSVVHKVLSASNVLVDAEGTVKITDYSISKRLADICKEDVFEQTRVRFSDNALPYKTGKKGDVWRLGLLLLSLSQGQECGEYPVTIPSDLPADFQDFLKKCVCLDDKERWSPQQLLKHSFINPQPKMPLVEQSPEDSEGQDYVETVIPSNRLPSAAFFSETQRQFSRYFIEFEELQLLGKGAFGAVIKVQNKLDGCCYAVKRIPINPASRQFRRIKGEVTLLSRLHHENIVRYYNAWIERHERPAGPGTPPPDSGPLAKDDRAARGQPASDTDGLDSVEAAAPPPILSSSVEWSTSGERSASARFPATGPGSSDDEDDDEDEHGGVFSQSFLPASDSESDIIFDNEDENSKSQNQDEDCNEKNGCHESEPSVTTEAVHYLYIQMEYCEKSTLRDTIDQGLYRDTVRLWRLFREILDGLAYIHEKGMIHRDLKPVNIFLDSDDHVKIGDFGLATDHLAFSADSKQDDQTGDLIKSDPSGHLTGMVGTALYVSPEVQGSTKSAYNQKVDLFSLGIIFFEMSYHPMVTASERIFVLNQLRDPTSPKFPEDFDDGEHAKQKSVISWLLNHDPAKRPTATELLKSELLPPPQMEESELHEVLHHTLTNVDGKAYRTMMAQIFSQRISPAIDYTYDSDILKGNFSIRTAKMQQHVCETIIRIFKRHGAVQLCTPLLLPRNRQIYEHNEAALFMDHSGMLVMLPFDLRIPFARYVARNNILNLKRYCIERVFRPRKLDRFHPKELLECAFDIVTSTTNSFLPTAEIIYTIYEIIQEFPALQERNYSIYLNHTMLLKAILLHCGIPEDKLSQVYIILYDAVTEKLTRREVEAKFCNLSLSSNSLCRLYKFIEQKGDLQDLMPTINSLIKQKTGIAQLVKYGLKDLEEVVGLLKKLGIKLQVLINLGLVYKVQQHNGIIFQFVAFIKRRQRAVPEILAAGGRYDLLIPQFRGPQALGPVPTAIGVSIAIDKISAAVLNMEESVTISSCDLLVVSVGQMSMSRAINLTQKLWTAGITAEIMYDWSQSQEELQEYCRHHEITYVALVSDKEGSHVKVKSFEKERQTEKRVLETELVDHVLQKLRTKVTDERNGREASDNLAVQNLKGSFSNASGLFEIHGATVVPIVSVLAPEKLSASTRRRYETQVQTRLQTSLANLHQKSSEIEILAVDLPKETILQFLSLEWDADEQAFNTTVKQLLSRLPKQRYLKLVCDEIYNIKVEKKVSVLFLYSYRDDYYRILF

PIK3CD = target: T1, PIK3CD (UniProt O00329)
T1 sequence (whole entry): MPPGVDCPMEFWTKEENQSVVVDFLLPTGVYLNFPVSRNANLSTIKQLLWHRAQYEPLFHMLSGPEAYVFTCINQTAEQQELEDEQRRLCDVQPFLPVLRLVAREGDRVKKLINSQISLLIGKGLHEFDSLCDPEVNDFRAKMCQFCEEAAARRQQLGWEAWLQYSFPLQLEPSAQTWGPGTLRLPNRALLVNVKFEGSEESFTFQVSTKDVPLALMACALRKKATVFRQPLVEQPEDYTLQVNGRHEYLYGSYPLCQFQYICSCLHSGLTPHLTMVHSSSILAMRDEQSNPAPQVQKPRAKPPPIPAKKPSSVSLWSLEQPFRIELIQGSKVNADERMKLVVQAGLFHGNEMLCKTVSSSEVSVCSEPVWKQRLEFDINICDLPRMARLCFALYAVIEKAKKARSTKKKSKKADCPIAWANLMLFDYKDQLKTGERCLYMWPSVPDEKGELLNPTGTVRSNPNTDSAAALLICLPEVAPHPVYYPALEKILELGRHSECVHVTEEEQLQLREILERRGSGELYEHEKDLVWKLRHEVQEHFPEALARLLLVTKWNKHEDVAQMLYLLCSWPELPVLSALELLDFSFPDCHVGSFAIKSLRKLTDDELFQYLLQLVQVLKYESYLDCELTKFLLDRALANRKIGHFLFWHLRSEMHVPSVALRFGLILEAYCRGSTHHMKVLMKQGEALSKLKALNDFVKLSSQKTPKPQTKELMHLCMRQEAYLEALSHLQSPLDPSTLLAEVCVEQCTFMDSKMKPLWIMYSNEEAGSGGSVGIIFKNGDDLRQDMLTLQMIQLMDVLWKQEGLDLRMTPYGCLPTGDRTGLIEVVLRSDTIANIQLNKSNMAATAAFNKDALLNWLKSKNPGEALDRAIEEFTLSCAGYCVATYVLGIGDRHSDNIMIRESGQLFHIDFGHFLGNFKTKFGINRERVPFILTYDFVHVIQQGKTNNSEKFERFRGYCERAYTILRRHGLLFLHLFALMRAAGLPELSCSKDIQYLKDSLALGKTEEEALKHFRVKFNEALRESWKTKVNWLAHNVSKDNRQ

PRKD1 = PRKD1 (UniProt Q15139); settings: affinity matrix / lysate: Kinobeads, mixed HEK293/K-562/placenta lysate
BRSK2 = BRSK2 (UniProt Q8IWQ3); settings: affinity matrix / lysate: Kinobeads, mixed HEK293/K-562/placenta lysate
ICK = ICK (UniProt Q9UPZ9); settings: affinity matrix / lysate: Kinobeads, mixed HEK293/K-562/placenta lysate
MAP4K5 = MAP4K5 (UniProt Q9Y4K4); settings: affinity matrix / lysate: Kinobeads, mixed HEK293/K-562/placenta lysate
TEC = TEC (UniProt P42680); settings: affinity matrix / lysate: Kinobeads, mixed HEK293/K-562/placenta lysate
CSF1R = CSF1R (UniProt P07333); settings: affinity matrix / lysate: Kinobeads, mixed HEK293/K-562/placenta lysate
[1] = affinity matrix / lysate: Lipid Kinobeads, mixed HeLa/Jurkat/K-562 lysate

Sequence of MAP4K2 (Q12851 whole entry): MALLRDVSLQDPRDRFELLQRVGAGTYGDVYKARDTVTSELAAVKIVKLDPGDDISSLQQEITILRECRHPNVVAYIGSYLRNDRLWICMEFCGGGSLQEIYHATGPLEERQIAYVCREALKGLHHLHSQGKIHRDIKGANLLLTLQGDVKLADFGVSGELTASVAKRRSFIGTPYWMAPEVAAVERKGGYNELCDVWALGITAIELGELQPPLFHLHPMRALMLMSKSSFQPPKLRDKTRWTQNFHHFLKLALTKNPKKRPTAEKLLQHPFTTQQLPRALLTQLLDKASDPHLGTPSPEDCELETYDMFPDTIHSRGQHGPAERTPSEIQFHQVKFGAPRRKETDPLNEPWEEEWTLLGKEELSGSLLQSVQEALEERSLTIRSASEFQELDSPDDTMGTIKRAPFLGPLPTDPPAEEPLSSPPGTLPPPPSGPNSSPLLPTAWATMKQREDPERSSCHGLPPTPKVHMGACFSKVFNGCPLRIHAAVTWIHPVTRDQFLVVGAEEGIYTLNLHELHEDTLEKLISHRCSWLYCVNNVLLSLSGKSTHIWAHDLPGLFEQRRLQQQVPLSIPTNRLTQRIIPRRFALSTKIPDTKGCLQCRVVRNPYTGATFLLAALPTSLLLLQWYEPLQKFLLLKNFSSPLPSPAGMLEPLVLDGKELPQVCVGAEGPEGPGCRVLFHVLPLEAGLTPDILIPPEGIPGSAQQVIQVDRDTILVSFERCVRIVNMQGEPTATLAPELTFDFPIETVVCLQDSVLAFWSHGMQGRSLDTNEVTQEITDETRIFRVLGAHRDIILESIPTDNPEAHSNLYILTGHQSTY

## COc1ccc(-c2ccc3c(N4CCOC[C@@H]4C)nc(N4CCOC[C@@H]4C)nc3n2)cc1CO [AZD8055]
ULK3
  apparent dissociation constant (-log10 M): < 6
MAP4K2
  apparent dissociation constant (-log10 M): < 6
BRAF
  apparent dissociation constant (-log10 M): < 6
NLK
  apparent dissociation constant (-log10 M): < 6
DAPK3
  apparent dissociation constant (-log10 M): < 6
MAPKAPK5
  apparent dissociation constant (-log10 M): < 6
CSNK1A1
  apparent dissociation constant (-log10 M): < 6
EIF2AK1
  apparent dissociation constant (-log10 M): < 6
CDK10
  apparent dissociation constant (-log10 M): < 6
ULK1
  apparent dissociation constant (-log10 M): < 6
FRK
  apparent dissociation constant (-log10 M): < 6
RPS6KA5
  apparent dissociation constant (-log10 M): < 6
KIAA0999
  apparent dissociation constant (-log10 M): < 6
MAP3K5
  apparent dissociation constant (-log10 M): < 6
CHEK1
  apparent dissociation constant (-log10 M): < 6
EIF2AK4
  apparent dissociation constant (-log10 M): < 6
PIK3CD; [1]
  apparent dissociation constant (-log10 M): 6.57
PRKD1
  apparent dissociation constant (-log10 M): < 6
BRSK2
  apparent dissociation constant (-log10 M): < 6
ICK
  apparent dissociation constant (-log10 M): < 6
MAP4K5
  apparent dissociation constant (-log10 M): < 6
TEC
  apparent dissociation constant (-log10 M): < 6
CSF1R
  apparent dissociation constant (-log10 M): < 6

## CCNC(=O)Nc1ccc(-c2nc(N3CCOC[C@@H]3C)c3c(n2)C(C)(C)S(=O)(=O)C3)cc1 [CZ415]
ULK3
  apparent dissociation constant (-log10 M): < 6
MAP4K2
  apparent dissociation constant (-log10 M): < 6
BRAF
  apparent dissociation constant (-log10 M): < 6
NLK
  apparent dissociation constant (-log10 M): < 6
DAPK3
  apparent dissociation constant (-log10 M): < 6
MAPKAPK5
  apparent dissociation constant (-log10 M): < 6
CSNK1A1
  apparent dissociation constant (-log10 M): < 6
EIF2AK1
  apparent dissociation constant (-log10 M): < 6
CDK10
  apparent dissociation constant (-log10 M): < 6
ULK1
  apparent dissociation constant (-log10 M): < 6
FRK
  apparent dissociation constant (-log10 M): < 6
RPS6KA5
  apparent dissociation constant (-log10 M): < 6
KIAA0999
  apparent dissociation constant (-log10 M): < 6
MAP3K5
  apparent dissociation constant (-log10 M): < 6
CHEK1
  apparent dissociation constant (-log10 M): < 6
EIF2AK4
  apparent dissociation constant (-log10 M): < 6
PIK3CD; affinity matrix / lysate: Kinobeads, mixed HEK293/K-562/placenta lysate
  apparent dissociation constant (-log10 M): < 6
PIK3CD; [1]
  apparent dissociation constant (-log10 M): < 6
PRKD1
  apparent dissociation constant (-log10 M): < 6
BRSK2
  apparent dissociation constant (-log10 M): < 6
ICK
  apparent dissociation constant (-log10 M): < 6
MAP4K5
  apparent dissociation constant (-log10 M): < 6
TEC
  apparent dissociation constant (-log10 M): < 6
CSF1R
  apparent dissociation constant (-log10 M): < 6

From the supplement of paper PMC6315032
